From PubChem BioAssay (NCI)
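Each compound was tested at five concentrations against cells in 96-well plates for 48 hours. GI50 marks 50% less growth. TGI marks complete inhibition of growth.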

Assays:
Experiment in all cases: inhibition of tumour cell growth, NCI panel, 48 h
UACC-257 melanoma = tested on: UACC-257 melanoma
PC-3 prostate = tested on: PC-3 prostate
U251 CNS = tested on: U251 CNS
LOX IMVI melanoma = tested on: LOX IMVI melanoma
UO-31 renal = tested on: UO-31 renal
MCF7 breast = tested on: MCF7 breast
BT-549 breast = tested on: BT-549 breast
M14 melanoma = tested on: M14 melanoma
K-562 leukemia = tested on: K-562 leukemia
HS 578T breast = tested on: HS 578T breast
SR leukemia = tested on: SR leukemia
T-47D breast = tested on: T-47D breast
MOLT-4 leukemia = tested on: MOLT-4 leukemia
TK-10 renal = tested on: TK-10 renal
786-0 renal = tested on: 786-0 renal
SF-295 CNS = tested on: SF-295 CNS
HCT-116 colon = tested on: HCT-116 colon
COLO 205 colon = tested on: COLO 205 colon
HCT-15 colon = tested on: HCT-15 colon
CCRF-CEM leukemia = tested on: CCRF-CEM leukemia
UACC-62 melanoma = tested on: UACC-62 melanoma
MALME-3M melanoma = tested on: MALME-3M melanoma
IGROV1 ovarian = tested on: IGROV1 ovarian
NCI-H226 lung = tested on: NCI-H226 lung
HOP-92 NSCLC = tested on: HOP-92 NSCLC
RXF 393 renal = tested on: RXF 393 renal
OVCAR-4 ovarian = tested on: OVCAR-4 ovarian
RPMI-8226 leukemia = tested on: RPMI-8226 leukemia
OVCAR-3 ovarian = tested on: OVCAR-3 ovarian
ACHN renal = tested on: ACHN renal
NCI-H522 lung = tested on: NCI-H522 lung
KM12 colon = tested on: KM12 colon
HL-60(TB) leukemia = tested on: HL-60(TB) leukemia
HT29 colon = tested on: HT29 colon
SNB-19 CNS = tested on: SNB-19 CNS
MDA-MB-231 breast = tested on: MDA-MB-231 breast
HCC-2998 colon = tested on: HCC-2998 colon
EKVX NSCLC = tested on: EKVX NSCLC
SK-MEL-5 melanoma = tested on: SK-MEL-5 melanoma
SF-539 CNS = tested on: SF-539 CNS
SK-OV-3 ovarian = tested on: SK-OV-3 ovarian
A549 NSCLC = tested on: A549 NSCLC
OVCAR-5 ovarian = tested on: OVCAR-5 ovarian
NCI/ADR-RES ovarian = tested on: NCI/ADR-RES ovarian
SK-MEL-28 melanoma = tested on: SK-MEL-28 melanoma
MDA-MB-435 = tested on: MDA-MB-435
NCI-H23 lung = tested on: NCI-H23 lung
SF-268 CNS = tested on: SF-268 CNS
OVCAR-8 ovarian = tested on: OVCAR-8 ovarian
A498 renal = tested on: A498 renal
SN12C renal = tested on: SN12C renal
SW-620 colon = tested on: SW-620 colon
NCI-H460 lung = tested on: NCI-H460 lung
SK-MEL-2 melanoma = tested on: SK-MEL-2 melanoma
CAKI-1 renal = tested on: CAKI-1 renal
SNB-75 CNS = tested on: SNB-75 CNS
DU-145 prostate = tested on: DU-145 prostate
HOP-62 NSCLC = tested on: HOP-62 NSCLC

NS(=O)(=O)c1ccc(N=Nc2c(O)[nH]c3ccc(C(=O)NCCc4cnc[nH]4)cc23)cc1
GI50 (UACC-257 melanoma): > 25 µM
TGI (UACC-257 melanoma): > 25 µM
GI50 (PC-3 prostate): > 25 µM
TGI (PC-3 prostate): > 25 µM
GI50 (U251 CNS): > 25 µM
TGI (U251 CNS): > 25 µM
GI50 (LOX IMVI melanoma): > 25 µM
TGI (LOX IMVI melanoma): > 25 µM
GI50 (UO-31 renal): > 25 µM
TGI (UO-31 renal): > 25 µM
GI50 (MCF7 breast): > 25 µM
TGI (MCF7 breast): > 25 µM
GI50 (BT-549 breast): > 25 µM
TGI (BT-549 breast): > 25 µM
GI50 (M14 melanoma): > 25 µM
TGI (M14 melanoma): > 25 µM
GI50 (K-562 leukemia): > 25 µM
TGI (K-562 leukemia): > 25 µM
GI50 (HS 578T breast): > 25 µM
TGI (HS 578T breast): > 25 µM
GI50 (SR leukemia): > 25 µM
TGI (SR leukemia): > 25 µM
GI50 (T-47D breast): > 25 µM
TGI (T-47D breast): > 25 µM
GI50 (MOLT-4 leukemia): > 25 µM
TGI (MOLT-4 leukemia): > 25 µM
GI50 (TK-10 renal): > 25 µM
TGI (TK-10 renal): > 25 µM
GI50 (786-0 renal): > 25 µM
TGI (786-0 renal): > 25 µM
GI50 (SF-295 CNS): > 25 µM
TGI (SF-295 CNS): > 25 µM
GI50 (HCT-116 colon): > 25 µM
TGI (HCT-116 colon): > 25 µM
GI50 (COLO 205 colon): > 25 µM
TGI (COLO 205 colon): > 25 µM
GI50 (HCT-15 colon): > 25 µM
TGI (HCT-15 colon): > 25 µM
GI50 (CCRF-CEM leukemia): > 25 µM
TGI (CCRF-CEM leukemia): > 25 µM
GI50 (UACC-62 melanoma): > 25 µM
TGI (UACC-62 melanoma): > 25 µM
GI50 (MALME-3M melanoma): > 25 µM
TGI (MALME-3M melanoma): > 25 µM
GI50 (IGROV1 ovarian): > 25 µM
TGI (IGROV1 ovarian): > 25 µM
GI50 (NCI-H226 lung): > 25 µM
TGI (NCI-H226 lung): > 25 µM
GI50 (HOP-92 NSCLC): > 25 µM
TGI (HOP-92 NSCLC): > 25 µM
GI50 (RXF 393 renal): > 25 µM
TGI (RXF 393 renal): > 25 µM
GI50 (OVCAR-4 ovarian): > 25 µM
TGI (OVCAR-4 ovarian): > 25 µM
GI50 (RPMI-8226 leukemia): > 25 µM
TGI (RPMI-8226 leukemia): > 25 µM
GI50 (OVCAR-3 ovarian): > 25 µM
TGI (OVCAR-3 ovarian): > 25 µM
GI50 (ACHN renal): > 25 µM
TGI (ACHN renal): > 25 µM
GI50 (NCI-H522 lung): > 25 µM
TGI (NCI-H522 lung): > 25 µM
GI50 (KM12 colon): > 25 µM
TGI (KM12 colon): > 25 µM
GI50 (HL-60(TB) leukemia): > 25 µM
TGI (HL-60(TB) leukemia): > 25 µM
GI50 (HT29 colon): > 25 µM
TGI (HT29 colon): > 25 µM
GI50 (SNB-19 CNS): > 25 µM
TGI (SNB-19 CNS): > 25 µM
GI50 (MDA-MB-231 breast): > 25 µM
TGI (MDA-MB-231 breast): > 25 µM
GI50 (HCC-2998 colon): > 25 µM
TGI (HCC-2998 colon): > 25 µM
GI50 (EKVX NSCLC): > 25 µM
TGI (EKVX NSCLC): > 25 µM
GI50 (SK-MEL-5 melanoma): > 25 µM
TGI (SK-MEL-5 melanoma): > 25 µM
GI50 (SF-539 CNS): > 25 µM
TGI (SF-539 CNS): > 25 µM
GI50 (SK-OV-3 ovarian): > 25 µM
TGI (SK-OV-3 ovarian): > 25 µM
GI50 (A549 NSCLC): > 25 µM
TGI (A549 NSCLC): > 25 µM
GI50 (OVCAR-5 ovarian): > 25 µM
TGI (OVCAR-5 ovarian): > 25 µM
GI50 (NCI/ADR-RES ovarian): > 25 µM
TGI (NCI/ADR-RES ovarian): > 25 µM
GI50 (SK-MEL-28 melanoma): > 25 µM
TGI (SK-MEL-28 melanoma): > 25 µM
GI50 (MDA-MB-435): > 25 µM
TGI (MDA-MB-435): > 25 µM
GI50 (NCI-H23 lung): > 25 µM
TGI (NCI-H23 lung): > 25 µM
GI50 (SF-268 CNS): > 25 µM
TGI (SF-268 CNS): > 25 µM
GI50 (OVCAR-8 ovarian): > 25 µM
TGI (OVCAR-8 ovarian): > 25 µM
GI50 (A498 renal): > 25 µM
TGI (A498 renal): > 25 µM
GI50 (SN12C renal): > 25 µM
TGI (SN12C renal): > 25 µM
GI50 (SW-620 colon): > 25 µM
TGI (SW-620 colon): > 25 µM
GI50 (NCI-H460 lung): > 25 µM
TGI (NCI-H460 lung): > 25 µM
GI50 (SK-MEL-2 melanoma): > 25 µM
TGI (SK-MEL-2 melanoma): > 25 µM
GI50 (CAKI-1 renal): > 25 µM
TGI (CAKI-1 renal): > 25 µM
GI50 (SNB-75 CNS): > 25 µM
TGI (SNB-75 CNS): > 25 µM
GI50 (DU-145 prostate): > 25 µM
TGI (DU-145 prostate): > 25 µM
GI50 (HOP-62 NSCLC): > 25 µM
TGI (HOP-62 NSCLC): > 25 µM
